Experimental data reported in patent publication US9290440B2, “Bicyclic compound” (TOA EIYO LTD., priority 2012, dated 2016).

Tested on: abdominal aorta ring specimen
Experiment: Evaluation of blood vessel relaxing function (phenylephrine-contracted abdominal aorta ring)
Conditions: relaxation of rat abdominal aorta contracted with 1 μmol/L phenylephrine; without vs with 10 μmol/L ODQ
Description: The representative compounds of the present invention were evaluated by blood vessel relaxing function according to the following Test Example. In the assay, bleeding from the upper part of a heart of a rat (male, SD) was performed under anesthesia with pentobarbital (30 mg/kg) and then abdominal aorta was extracted. The connecting tissue adhered around blood vessel was removed from the abdominal aorta in an ice-cooled Krebs-Henseleit solution (KH solution) (118 mmol/L sodium chloride, 4.7 mmol/L potassium chloride, 1.2 mmol/L magnesium sulfate, 1.2 mmol/L potassium dihydrogen phosphate, 25 mmol/L sodium hydrogen carbonate, 2.5 mmol/L calcium chloride, and 10 mmol/L glucose, pH 7.4). After that, a ring specimen with length of 2 mm was prepared and fixed in 5 mL organ bath filled with a KH solution. The KH solution was kept at 37° C. and aerated with a mixture gas of 95% O2 and 5% CO2. The specimen was stabilized for 1 hour with static tension of 1 g. The KH solution was exchanged twice during that time. The tension on the specimen was recorded on a multi-channel recorder via pickup and amplifier. After the stabilization of the specimen, contraction was caused by using 1 μmol/L phenylephrine (Phe), and cumulative administration of each compound (0.001, 0.01, 0.03, 0.1, 0.3, 1, 3, 10, 30, 100, 1000, 10000 nmol/L) was performed. For the evaluation of a case in which 1H-1,2,4-oxadiazole-(4,3a)-quinoxalin-1-one (ODQ) is contained, 10 μmol/L ODQ was added 10 minutes before the Phe addition, and the same evaluation as above was performed.
EC50 value was calculated using four-parameter logistics model using Assay Explorer (Accelrys). The test compound solution was dissolved in DMSO such that the concentration of each test compound is 1000 times the final concentration.

EC50 Ratio (ODQ−/ODQ+)	SMILES
12.4	O=C(O)CCCCN(CCc1ccccc1OCc1ccc(CCc2ccccc2)cc1)Cc1ccc(C(=O)O)cc1 [Cinaciguat, reference compound]
9.0	O=C(O)CCCCN(CCc1ccccc1OCc1ccc(SCc2ccccc2)cc1)C1CCCc2cc(C(=O)O)ccc21 (stereo not drawn) [Example 15, 5-{N-[2-[2-(4-Benzylsulfanylbenzyloxyl)phenyl]ethyl]-N-(4-carboxybutyl)amino}-5,6,7,8-tetrahydronaphthalene-2-carboxylic acid]
5.0	O=C(O)CCCCN(CCc1ccccc1OCc1cccc2c1CCCC2)C1CCCc2cc(C(=O)O)ccc21 (stereo not drawn) [Example 29, 5-{N-(4-Carboxybutyl)-N-[2-[2-(5,6,7,8-tetrahydronaphthalene-1-ylmethoxy)phenyl]ethyl]amino}-5,6,7,8-tetrahydronaphthalene-2-carboxylic acid]
